Biological target: CDK12/CycK (Homo sapiens, UniProt Q9NYV4)
Test: CDK12/CycK high ATP kinase assay (TR-FRET, 2 mM ATP)
Type: biochemical
Conditions: 2 mM ATP (high ATP); median; read-out: CDK12/CyclinK, 2 mM ATP (high ATP), IC50-[mol/l] (median)
Outline: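 His-tagged human CDK12/CycK (~0.75 nM) pre-incubated 15 min with compound, then 60 min at 22 °C with 2 mM ATP and 1 µM biotinylated peptide (HEPES pH 7.5, 20 mM MgCl2). EDTA stop; phospho-Ser62 antibody/Eu anti-rabbit and streptavidin-XL665 TR-FRET, 665/620 nm ratio normalised to give IC50.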

CDK12/CycK, sequence (Q9NYV4 with tags, fused parts or gaps): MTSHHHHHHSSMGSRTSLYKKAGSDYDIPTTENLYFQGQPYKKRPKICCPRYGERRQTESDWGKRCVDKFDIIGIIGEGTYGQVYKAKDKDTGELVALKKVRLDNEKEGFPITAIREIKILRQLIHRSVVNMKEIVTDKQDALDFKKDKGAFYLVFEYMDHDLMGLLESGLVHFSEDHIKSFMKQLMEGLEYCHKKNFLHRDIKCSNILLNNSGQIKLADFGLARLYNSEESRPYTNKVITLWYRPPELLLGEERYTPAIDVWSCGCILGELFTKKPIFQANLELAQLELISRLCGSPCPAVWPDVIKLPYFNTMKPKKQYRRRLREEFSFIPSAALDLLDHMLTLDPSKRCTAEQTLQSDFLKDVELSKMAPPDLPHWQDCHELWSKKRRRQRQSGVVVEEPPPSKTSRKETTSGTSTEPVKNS
CDK12/CycK, sequence (O75909 1-300 partner limits assumed): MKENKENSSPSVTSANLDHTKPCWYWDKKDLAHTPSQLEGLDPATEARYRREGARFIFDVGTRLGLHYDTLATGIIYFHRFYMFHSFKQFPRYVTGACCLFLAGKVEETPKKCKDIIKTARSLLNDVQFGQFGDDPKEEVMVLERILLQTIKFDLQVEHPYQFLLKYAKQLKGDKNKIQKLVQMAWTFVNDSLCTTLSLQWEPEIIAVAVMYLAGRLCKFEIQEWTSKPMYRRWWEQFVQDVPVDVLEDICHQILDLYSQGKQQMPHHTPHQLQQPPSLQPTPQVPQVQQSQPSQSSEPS

| SMILES | IC50 |
| --- | --- |
| CCNC1CCN(c2nc(NCc3nc4ccccc4[nH]3)n3ncc(Br)c3n2)CC1 [Example 300] | > 20 µM |
| Brc1cnn2c(NCc3nc4ccccc4[nH]3)nc(N3CC4CCNC4C3)nc12 (stereo not shown) [Example 271, 2-(2,3,3a,4,6,6a-hexahydro-1H-pyrrolo[2,3-c]pyrrol-5-yl)-N-(1H-benzimidazol-2-ylmethyl)-8-bromo-pyrazolo[1,5-a][1,3,5]triazin-4-amine] | > 20 µM |
| CN1CCN(c2nc(NCc3nc4ccccc4[nH]3)n3ncc(C(F)(F)F)c3n2)CC1 [Example 297, N-[(1H-benzimidazol-2-yl)methyl]-2-(4-methylpiperazin-1-yl)-8-(trifluoromethyl)pyrazolo[1,5-a][1,3,5]triazin-4-amine] | 17.4 µM |
| COc1cccc2[nH]c(CNc3nc(N4CCOCC4)nc4c(CC(F)(F)F)cnn34)nc12 [Example 277, N-[(4-methoxy-1H-benzimidazol-2-yl)methyl]-2-(morpholin-4-yl)-8-(2,2,2-trifluoroethyl)pyrazolo[1,5-a][1,3,5]triazin-4-amine] | 4.79 µM |
| Fc1ccc2[nH]c(CNc3nc(N4CCOCC4)nc4c(C5CCOCC5)cnn34)nc2c1F [Example 276, N-[(4,5-difluoro-1H-benzimidazol-2-yl)methyl]-2-(morpholin-4-yl)-8-(oxan-4-yl)pyrazolo[1,5-a][1,3,5]triazin-4-amine] | > 20 µM |
| NC1(C(F)(F)F)CCN(c2nc(NCc3nc4ccccc4[nH]3)n3ncc(Br)c3n2)C1 (stereo not shown) [Example 266, 2-[3-amino-3-(trifluoromethyl)pyrrolidin-1-yl]-N-(1H-benzimidazol-2-ylmethyl)-8-bromo-pyrazolo[1,5-a][1,3,5]triazin-4-amine] | 3.48 µM |
| Fc1ccc2[nH]c(CNc3nc(N4CCOCC4)nc4c(C5CC5(F)F)cnn34)nc2c1 (single isomer, unassigned) [Example 314, 8-[(1R or S)-2,2-difluorocyclopropyl]-N-[(5-fluoro-1H-benzimidazol-2-yl)methyl]-2-(morpholin-4-yl)pyrazolo[1,5-a][1,3,5]triazin-4-amine] | 9.92 µM |
| Brc1cnn2c(NCc3nc4ccccc4[nH]3)nc(N3C[C@@H]4C[C@H]3CN4)nc12 [Example 270, N-[(1H-benzimidazol-2-yl)methyl]-8-bromo-2-[(1S,4S)-2,5-diazabicyclo[2.2.1]heptan-2-yl]pyrazolo[1,5-a][1,3,5]triazin-4-amine] | 13.7 µM |
| Clc1cc2nc(CNc3nc(N4CCOCC4)nc4c(C5CC5)cnn34)[nH]c2cc1Cl [Example 301, 8-cyclopropyl-N-[(5,6-dichloro-1H-benzimidazol-2-yl)methyl]-2-(morpholin-4-yl)pyrazolo[1,5-a][1,3,5]triazin-4-amine] | 1.18 µM |
| CN[C@H]1CCN(c2nc(NCc3nc4ccccc4[nH]3)n3ncc(Br)c3n2)C1 [Example 252, N-[(1H-benzimidazol-2-yl)methyl]-8-bromo-2-[(3S)-3-(methylamino)pyrrolidin-1-yl]pyrazolo[1,5-a][1,3,5]triazin-4-amine] | > 20 µM |
| c1ccc2[nH]c(CNc3nc(N4CCOCC4)nc4c(C5CCC5)cnn34)nc2c1 [Example 263, N-[(1H-benzimidazol-2-yl)methyl]-8-cyclobutyl-2-(morpholin-4-yl)pyrazolo[1,5-a][1,3,5]triazin-4-amine] | 6.89 µM |
| CN1CCN(c2nc(NCc3nc4cc(Cl)ccc4[nH]3)n3ncc(C(F)(F)F)c3n2)CC1 [Example 298, N-[(5-chloro-1H-benzimidazol-2-yl)methyl]-2-(4-methylpiperazin-1-yl)-8-(trifluoromethyl)pyrazolo[1,5-a][1,3,5]triazin-4-amine] | 8.31 µM |
| Brc1cnn2c(NCc3nc4ccccc4[nH]3)nc(N3C[C@H]4C[C@@H]3CN4)nc12 [Example 269, N-[(1H-benzimidazol-2-yl)methyl]-8-bromo-2-[(1R,4R)-2,5-diazabicyclo[2.2.1]heptan-2-yl]pyrazolo[1,5-a][1,3,5]triazin-4-amine] | 8.61 µM |
| Brc1cnn2c(NCc3nc4ccccc4[nH]3)nc(N3C[C@H]4CC[C@@H]3CN4)nc12 (single isomer, unassigned) [Example 316, N-[(1H-benzimidazol-2-yl)methyl]-8-bromo-2-{[1R or S-(1R*4R*)]-2,5-diazabicyclo[2.2.2]octan-2-yl}pyrazolo[1,5-a][1,3,5]triazin-4-amine] | 2.92 µM |
| N[C@@H]1CCN(c2nc(NCc3nc4ccccc4[nH]3)n3ncc(Br)c3n2)C1 [Example 250, 2-[(3R)-3-aminopyrrolidin-1-yl]-N-[(1H-benzimidazol-2-yl)methyl]-8-bromopyrazolo[1,5-a][1,3,5]triazin-4-amine] | 11.3 µM |
| NC12CC1CN(c1nc(NCc3nc4ccccc4[nH]3)n3ncc(Br)c3n1)C2 (stereo not shown) [Example 258, 2-(1-amino-3-azabicyclo[3.1.0]hexan-3-yl)-N-(1H-benzimidazol-2-ylmethyl)-8-bromo-pyrazolo[1,5-a][1,3,5]triazin-4-amine] | 4.69 µM |

| SMILES | IC50 |
| --- | --- |
| CC(C)CNc1nc(NCc2nc3ccccc3[nH]2)n2ncc(Br)c2n1 [Example 285, N^4-[(1H-benzimidazol-2-yl)methyl]-8-bromo-N^2-(2-methylpropyl)pyrazolo[1,5-a][1,3,5]triazine-2,4-diamine] | 6.44 µM |
| Fc1cccc2[nH]c(CNc3nc(N4CCOCC4)nc4c(C(F)(F)F)cnn34)nc12 [Example 274, N-[(4-fluoro-1H-benzimidazol-2-yl)methyl]-2-(morpholin-4-yl)-8-(trifluoromethyl)pyrazolo[1,5-a][1,3,5]triazin-4-amine] | 0.0395 µM |
| FC(F)(F)c1cnn2c(NCc3nc4cc(Cl)ccc4[nH]3)nc(N3CCOCC3)nc12 [Example 275, N-[(5-chloro-1H-benzimidazol-2-yl)methyl]-2-(morpholin-4-yl)-8-(trifluoromethyl)pyrazolo[1,5-a][1,3,5]triazin-4-amine] | 0.0973 µM |
| CN(CC(C)(C)O)c1nc(NCc2nc3c(F)c(F)ccc3[nH]2)n2ncc(C3CC3)c2n1 [Example 292, 1-[(8-cyclopropyl-4-{[(4,5-difluoro-1H-benzimidazol-2-yl)methyl]amino}pyrazolo[1,5-a][1,3,5]triazin-2-yl)(methyl)amino]-2-methylpropan-2-ol] | 0.666 µM |
| NC1CCN(c2nc(NCc3nc4ccccc4[nH]3)n3ncc(Br)c3n2)CC1 [Example 256, 2-(4-aminopiperidin-1-yl)-N-[(1H-benzimidazol-2-yl)methyl]-8-bromopyrazolo[1,5-a][1,3,5]triazin-4-amine] | > 20 µM |
| Fc1cccc2[nH]c(CNc3nc(N4C[C@H]5CC[C@@H](C4)N5)nc4c(C5CC5)cnn34)nc12 [Example 296, 8-cyclopropyl-2-[(1R,5S)-3,8-diazabicyclo[3.2.1]octan-3-yl]-N-[(4-fluoro-1H-benzimidazol-2-yl)methyl]pyrazolo[1,5-a][1,3,5]triazin-4-amine] | 2.48 µM |
| CN(CC1CC1)c1nc(NCc2nc3ccccc3[nH]2)n2ncc(Br)c2n1 [Example 287, N^4-[(1H-benzimidazol-2-yl)methyl]-8-bromo-N^2-(cyclopropylmethyl)-N^2-methylpyrazolo[1,5-a][1,3,5]triazine-2,4-diamine] | 10.7 µM |
| CNC1CCN(c2nc(NCc3nc4ccccc4[nH]3)n3ncc(Br)c3n2)CC1 [Example 272, N-[(1H-benzimidazol-2-yl)methyl]-8-bromo-2-[4-(methylamino)piperidin-1-yl]pyrazolo[1,5-a][1,3,5]triazin-4-amine] | > 20 µM |
| CN(CC(C)(C)O)c1nc(NCc2nc3cc(F)c(Cl)cc3[nH]2)n2ncc(C3CC3)c2n1 [Example 317, 1-[(4-{[(6-chloro-5-fluoro-1H-benzimidazol-2-yl)methyl]amino}-8-cyclopropylpyrazolo[1,5-a][1,3,5]triazin-2-yl)(methyl)amino]-2-methylpropan-2-ol] | 0.979 µM |
| Fc1ccc2[nH]c(CNc3nc(N4CCOCC4)nc4c(C5CC5(F)F)cnn34)nc2c1F (stereo not shown) [Example 278, N-[(4,5-difluoro-1H-benzimidazol-2-yl)methyl]-8-(2,2-difluorocyclopropyl)-2-(morpholin-4-yl)pyrazolo[1,5-a][1,3,5]triazin-4-amine] | 2.44 µM |
| Fc1ccc2[nH]c(CNc3nc(N4CCOCC4)nc4c([C@@H]5CC5(F)F)cnn34)nc2c1 (single isomer, unassigned) [Example 315, 8-[(1R or S)-2,2-difluorocyclopropyl]-N-[(5-fluoro-1H-benzimidazol-2-yl)methyl]-2-(morpholin-4-yl)pyrazolo[1,5-a][1,3,5]triazin-4-amine] | > 19.7 µM |
| Fc1ccc2[nH]c(CNc3nc(N4CCOCC4)nc4c(C5CCCC5)cnn34)nc2c1F [Example 262, 8-cyclopentyl-N-[(4,5-difluoro-1H-benzimidazol-2-yl)methyl]-2-(morpholin-4-yl)pyrazolo[1,5-a][1,3,5]triazin-4-amine] | > 5.71 µM |
| Brc1cnn2c(NCc3nc4ccccc4[nH]3)nc(N3CCC4(CCN4)CC3)nc12 [Example 291, N-[(1H-benzimidazol-2-yl)methyl]-8-bromo-2-(1,7-diazaspiro[3.5]nonan-7-yl)pyrazolo[1,5-a][1,3,5]triazin-4-amine] | 10.7 µM |
| Fc1cc2nc(CNc3nc(N4CCOCC4)nc4c(C5CC5)cnn34)[nH]c2cc1Cl [Example 307, N-[(6-chloro-5-fluoro-1H-benzimidazol-2-yl)methyl]-8-cyclopropyl-2-(morpholin-4-yl)pyrazolo[1,5-a][1,3,5]triazin-4-amine] | 1.57 µM |
| N[C@@H]1[C@@H]2C[C@H]1CN(c1nc(NCc3nc4ccccc4[nH]3)n3ncc(Br)c3n1)C2 [Example 289, 2-[(1R,5S,6s)-6-amino-3-azabicyclo[3.1.1]heptan-3-yl]-N-[(1H-benzimidazol-2-yl)methyl]-8-bromopyrazolo[1,5-a][1,3,5]triazin-4-amine] | 7 µM |

From patent US20230117034A1, “PYRAZOLOTRIAZINES” (Bayer Aktiengesellschaft, priority 2019, published 2023)
